According to ChEMBL document CHEMBL1139799, “Identification of novel chemical inhibitors for ubiquitin C-terminal hydrolase-L3 by virtual screening” (Bioorg Med Chem, 2007):
Each block holds one molecule with its values, some of them ahead of it. Activity calls are given as the source filed them. No cut-off for these calls is given here.

Tests used:
[1] = target: T1, Ubiquitin carboxyl-terminal hydrolase isozyme L3 (Homo sapiens) (UniProt P15374); assay: Inhibition of human UCH-L3 hydrolysis activity at 380 uM relative to control; design: scale not given: the % may be the effect or the level left
T1 sequence (whole entry): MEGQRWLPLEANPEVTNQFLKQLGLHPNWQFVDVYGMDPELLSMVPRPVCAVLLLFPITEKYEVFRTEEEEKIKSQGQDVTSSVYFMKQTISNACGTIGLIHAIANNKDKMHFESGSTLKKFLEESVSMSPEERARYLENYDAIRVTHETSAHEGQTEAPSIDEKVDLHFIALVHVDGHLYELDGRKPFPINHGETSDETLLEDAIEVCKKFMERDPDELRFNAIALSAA

[2] = target: T2, Ubiquitin carboxyl-terminal hydrolase isozyme L3 (Homo sapiens, UniProt P15374); assay: Inhibition of human UCH-L3 hydrolysis activity
T2 sequence (P15374 whole entry): T1 sequence (whole entry)

[3] = target: T1, Ubiquitin carboxyl-terminal hydrolase isozyme L3 (Homo sapiens); assay: Inhibition of human UCH-L3 hydrolysis activity at 375 uM relative to control; design: scale not given: the % may be the effect or the level left
[4] = target: T1, Ubiquitin carboxyl-terminal hydrolase isozyme L3 (Homo sapiens); assay: Inhibition of human UCH-L3 hydrolysis activity at 350 uM relative to control; design: scale not given: the % may be the effect or the level left
[5] = target: T1, Ubiquitin carboxyl-terminal hydrolase isozyme L3 (Homo sapiens); assay: Inhibition of human UCH-L3 hydrolysis activity at 334 uM
[6] = target: T1, Ubiquitin carboxyl-terminal hydrolase isozyme L3 (Homo sapiens); assay: Inhibition of human UCH-L3 hydrolysis activity at 387 uM
[7] = target: T1, Ubiquitin carboxyl-terminal hydrolase isozyme L3 (Homo sapiens); assay: Inhibition of human UCH-L3 hydrolysis activity at 386 uM
[8] = target: T1, Ubiquitin carboxyl-terminal hydrolase isozyme L3 (Homo sapiens); assay: Inhibition of human UCH-L3 hydrolysis activity at 331 uM

- IC50 [2]: 154 µM
- Activity [3]: 76.5%
SMILES: COc1ccc(C2C(C(=O)c3cccs3)=C(O)C(=O)N2c2nncs2)cc1 (stereo not given)

- IC50 [2]: 123 µM
- Activity [4]: 76.8%
SMILES: Cc1ccc(C(=O)C2=C(O)C(=O)N(Cc3cccnc3)C2c2ccc(F)cc2)o1 (stereo not given)

- IC50 [2]: 103 µM
SMILES: Cc1ccc(C(=O)C2=C(O)C(=O)N(Cc3ccccc3)C2c2cccnc2)o1 (stereo not given)

The next lines start with the molecule.

SMILES: Cn1c(SCc2nc(-c3cccs3)no2)nnc1-c1c[nH]c2ccccc12
- Activity [1]: 16.2%

SMILES: COc1ccc(N(CC(=O)NC2CC2)S(=O)(=O)c2ccc(C)cc2)cc1
- Activity [5]: inactive

SMILES: Nc1nc(CSc2nnc(-c3ccco3)n2-c2ccccc2)cs1
- Activity [6]: inactive

SMILES: COc1cccc(N(CC(=O)NC2CCCC2)S(=O)(=O)c2ccccc2)c1
- Activity [7]: inactive

SMILES: CCS(=O)(=O)Nc1cccc(C2=NN(C(C)=O)C(c3cccs3)C2)c1 (stereo not given)
- Activity [8]: inactive
